PubChem BioAssay AID1963443 (Molecular Pharmacology Branch, DTP, NCI, 2024)
pIC50: −log10 of the molar value.

Test system: MDA-MB-231 complex spheroids, growth inhibition
Assay: Anticancer human tumor MDA-MB-231 cell line growth inhibition [Asc];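 note: spheroids exposed to compounds for 7 days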
Details: for pIC50: curve of first compound; for viability, T/C: stronger effect = lower value; active = viability on the fitted dose curve at most 10% of control; inactive = the rest
Summary of the method: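 Tumor cells were grown as complex spheroids with human endothelial cells (HUVEC) and human mesenchymal stem cells as stroma. Agents were tested alone and in combination, in half-log steps down from the clinical Cmax, or from 10 microM where Cmax was unknown.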

CCN1C(C(=O)NC23CCC(C(=O)O)(CC2)CC3)C(c2cccc(Cl)c2F)C2(C(=O)Nc3cc(Cl)ccc32)C12CCCCC2 (stereo not given) + Cc1c(S(C)(=O)=O)c(-c2cc(F)cc(N3CCN(c4ccc(NS(=O)(=O)c5ccc(NC(CCN6CCC(C(=O)OCCCP(=O)(O)O)CC6)CSc6ccccc6)c(S(=O)(=O)C(F)(F)F)c5)cc4)CC3)c2)c(-c2ccc(Cl)cc2)n1C(C)C
< 5.52: pIC50 (second compound 0.1 µM) | pIC50 (second compound 0.316 µM) | pIC50 (second compound 1 µM) | pIC50 (second compound 3.16 µM) | pIC50 (second compound 10 µM)
inactive: viability, T/C (second compound 0.1 µM, first compound 0.00949 µM) 90% | viability, T/C (second compound 0.1 µM, first compound 0.03 µM) 82.6% | viability, T/C (second compound 0.1 µM, first compound 0.0949 µM) 103% | viability, T/C (second compound 0.1 µM, first compound 0.3 µM) 103% | viability, T/C (second compound 0.1 µM, first compound 0.949 µM) 101% | viability, T/C (second compound 0.1 µM, first compound 3 µM) 108% | viability, T/C (second compound 0.316 µM, first compound 0.00949 µM) 104% | viability, T/C (second compound 0.316 µM, first compound 0.03 µM) 105% | viability, T/C (second compound 0.316 µM, first compound 0.0949 µM) 105% | viability, T/C (second compound 0.316 µM, first compound 0.3 µM) 106% | viability, T/C (second compound 0.316 µM, first compound 0.949 µM) 106% | viability, T/C (second compound 0.316 µM, first compound 3 µM) 94.9% | viability, T/C (second compound 1 µM, first compound 0.00949 µM) 100% | viability, T/C (second compound 1 µM, first compound 0.03 µM) 100% | viability, T/C (second compound 1 µM, first compound 0.0949 µM) 104% | viability, T/C (second compound 1 µM, first compound 0.3 µM) 100% | viability, T/C (second compound 1 µM, first compound 0.949 µM) 105% | viability, T/C (second compound 1 µM, first compound 3 µM) 82% | viability, T/C (second compound 3.16 µM, first compound 0.00949 µM) 94.5% | viability, T/C (second compound 3.16 µM, first compound 0.03 µM) 98.4% | viability, T/C (second compound 3.16 µM, first compound 0.0949 µM) 92.9% | viability, T/C (second compound 3.16 µM, first compound 0.3 µM) 91.2% | viability, T/C (second compound 3.16 µM, first compound 0.949 µM) 93.4% | viability, T/C (second compound 3.16 µM, first compound 3 µM) 70.8% | viability, T/C (second compound 10 µM, first compound 0.00949 µM) 94% | viability, T/C (second compound 10 µM, first compound 0.03 µM) 95.7% | viability, T/C (second compound 10 µM, first compound 0.0949 µM) 93.5% | viability, T/C (second compound 10 µM, first compound 0.3 µM) 93.7% | viability, T/C (second compound 10 µM, first compound 0.949 µM) 83.3% | viability, T/C (second compound 10 µM, first compound 3 µM) 57.6%

CNC(C)C(=O)NC1CN(S(=O)(=O)c2cccc(S(=O)(=O)N3CCC4CCC(C(=O)NC(c5ccccc5)c5ccccc5)N4C(=O)C(NC(=O)C(C)NC)C3)c2)CCC2CCC(C(=O)NC(c3ccccc3)c3ccccc3)N2C1=O (stereo not given) + Cc1c(S(C)(=O)=O)c(-c2cc(F)cc(N3CCN(c4ccc(NS(=O)(=O)c5ccc(NC(CCN6CCC(C(=O)OCCCP(=O)(O)O)CC6)CSc6ccccc6)c(S(=O)(=O)C(F)(F)F)c5)cc4)CC3)c2)c(-c2ccc(Cl)cc2)n1C(C)C
> 8.50: pIC50 (second compound 0.1 µM) | pIC50 (second compound 0.316 µM) | pIC50 (second compound 1 µM) | pIC50 (second compound 3.16 µM) | pIC50 (second compound 10 µM)
active: viability, T/C (second compound 0.1 µM, first compound 0.00316 µM) 2.88% | viability, T/C (second compound 0.1 µM, first compound 0.01 µM) 0.95% | viability, T/C (second compound 0.1 µM, first compound 0.0316 µM) 0.9% | viability, T/C (second compound 0.1 µM, first compound 0.1 µM) 0.67% | viability, T/C (second compound 0.1 µM, first compound 0.316 µM) 0.5% | viability, T/C (second compound 0.1 µM, first compound 1 µM) 0.72% | viability, T/C (second compound 0.316 µM, first compound 0.00316 µM) 2.6% | viability, T/C (second compound 0.316 µM, first compound 0.01 µM) 0.97% | viability, T/C (second compound 0.316 µM, first compound 0.0316 µM) 0.75% | viability, T/C (second compound 0.316 µM, first compound 0.1 µM) 0.41% | viability, T/C (second compound 0.316 µM, first compound 0.316 µM) 0.53% | viability, T/C (second compound 0.316 µM, first compound 1 µM) 0.56% | viability, T/C (second compound 1 µM, first compound 0.00316 µM) 2.07% | viability, T/C (second compound 1 µM, first compound 0.01 µM) 0.62% | viability, T/C (second compound 1 µM, first compound 0.0316 µM) 0.54% | viability, T/C (second compound 1 µM, first compound 0.1 µM) 0.29% | viability, T/C (second compound 1 µM, first compound 0.316 µM) 0.35% | viability, T/C (second compound 1 µM, first compound 1 µM) 0.9% | viability, T/C (second compound 3.16 µM, first compound 0.00316 µM) 1.77% | viability, T/C (second compound 3.16 µM, first compound 0.01 µM) 0.46% | viability, T/C (second compound 3.16 µM, first compound 0.0316 µM) 0.35% | viability, T/C (second compound 3.16 µM, first compound 0.1 µM) 0.27% | viability, T/C (second compound 3.16 µM, first compound 0.316 µM) 0.26% | viability, T/C (second compound 3.16 µM, first compound 1 µM) 0.39% | viability, T/C (second compound 10 µM, first compound 0.00316 µM) 1.22% | viability, T/C (second compound 10 µM, first compound 0.01 µM) 0.49% | viability, T/C (second compound 10 µM, first compound 0.0316 µM) 0.42% | viability, T/C (second compound 10 µM, first compound 0.1 µM) 0.48% | viability, T/C (second compound 10 µM, first compound 0.316 µM) 0.43% | viability, T/C (second compound 10 µM, first compound 1 µM) 0.61%
